Measured values from patent US11958915B2, “Methods for treatment and diagnosis of non-alcoholic steatohepatitis and/or hepatocellular carcinoma” (Marshall University Research Corporation, priority 2020, dated 2024).

Columns and labels:
[1] = tested on: two human HCC cell lines (HEP3B and SNU475); assay: MTT cell proliferation assay, two human HCC cell lines; assay type: cell-based; conditions: PI3K/Akt pathway inhibitors on two human HCC cell lines
Procedure: (§1) In-vitro studies: cell lines and cell culture. Human HCC cell lines (HEP3B and SNU475 from ATCC, Cambridge, Mass.) were checked regularly for Mycoplasma contamination using RT-PCR kit while growing in culture with high glucose DMEM media supplemented with 10% FBS and 1% Penicillin/Streptomycin (HEP3), or with RPMI 1640 media supplemented with 10% heat inactivated FBS and 1% Penicillin/Streptomycin (SNU475) in 37° C. humidified incubator in presence of CO2 at 5%.
MTT Cell proliferation assay was performed by plating 5000 cells/well in 6 wells (per condition) of 96 well plates and allowed to adhere for 24 hours, when media was replaced with media±treatment agent for another 24 hours to finally assess cell proliferation according to the manufacturer's instructions (MTT assay, from #ATCC® 30-1010K, Cambridge, Mass.). Digoxin was dissolved in serum free media before addition to cells at designated concentrations.

[2] = tested on: two human HCC cell lines (HEP3B and SNU475); assay: Protein expression by western blotting/confocal microscopy, two human HCC cell lines; assay type: cell-based; conditions: two Human HCC cells exposed to digoxin
Procedure: as §1
Confocal microscopy assessment on Immuno-stained cells/liver tissue. For in vitro studies, immunocytochemistry was performed on both human HCC cell lines as previously described. Briefly, the treated for 4 hours cells and the untreated cells were plated on glass coverslips and allowed to reach 70% confluency. […] Next day, slides were incubated with secondary antibodies (Alexa Fluor 488 or 549) and mounted with Vectashield mounting media on slides containing DAPI (Vector Laboratories, Inc., H-1800).
Western Blotting. […] Blocked membranes were incubated with the specific primary/secondary antibodies for protein signals to be detected by the Pierce ECL kit (Thermo Fisher Scientific, Waltham, Mass.), and quantified using ImageJ software.

SMILES	cell proliferation (MTT assay) [1]	expression of survivin [2]
N#C/C(=C/c1ccc(O)c(O)c1)C(=O)NCc1ccccc1 [AG490]	inhibited cell proliferation	
CC(C)(C)n1nc(-c2ccc(Cl)cc2)c2c(N)ncnc21 [PP2]	inhibited cell proliferation	
C[C@H]1O[C@@H](O[C@H]2[C@@H](O)C[C@H](O[C@H]3[C@@H](O)C[C@H](O[C@H]4CC[C@@]5(C)[C@H](CC[C@@H]6[C@@H]5C[C@@H](O)[C@]5(C)[C@@H](C7=CC(=O)OC7)CC[C@]65O)C4)O[C@@H]3C)O[C@@H]2C)C[C@H](O)[C@@H]1O [digoxin]		increased the expression of survivin
